Assays:
[1] = mean pharmacokinetic parameters of taurinamide and taurultam (FIGS. 10, 11); conditions: in vivo; mean pharmacokinetic parameter, weight-based AUC
Procedure: FIG. 10 is a chart showing the mean pharmacokinetic parameters of taurinamide; and
FIG. 11 is a chart showing the mean pharmacokinetic parameters of taurultam.
The taurinamide is given with a dosage range of from 5 mg/kg to 280 mg/kg, with optimal range between 5 mg/kg and 60 mg/kg, from once daily through weekly, for an effective period of time based on individual patient response.
The taurultam is given with a dosage range of from 5 mg/kg to 280 mg/kg, with optimal range between 5 mg/kg and 60 mg/kg, from once daily through weekly, for an effective period of time based on individual patient response.

neuroblastoma cell lines = assay: in vitro cell viability of neuroblastoma cell lines (FIG. 2); format: cell-based
Description: (§1) The IC50 values are between 80-140 microMolar for neuroblastoma cell lines, and 200 microMolar for normal fibroblasts (see FIG. 2).

healthy fibroblasts (BJ) = assay: in vitro cell viability of healthy fibroblasts (FIG. 2); format: cell-based; conditions: Fibroblast, normal fibroblasts
Description: as §1

leukemia cell lines = assay: in vitro sensitivity of leukemia cell lines compared to healthy lymphocytes (FIG. 1); format: cell-based; conditions: leukemia cell lines vs healthy lymphocytes
IMR5 tumors = assay: IMR5 neuroblastoma tumors implanted subcutaneously in mice (FIGS. 3-6); format: in vivo; conditions: IMR5 tumors implanted subcutaneously in CB57 SCID mice
Description: The efficacy observed with taurolidine treatment of IMR5 cell implants in vivo (FIGS. 3-6), despite IRM5's relatively high IC50 in vitro (FIG. 2), supports the conclusion that the hydrolysis products of taurolidine may have independent anti-neoplastic activity. […] Since it is known that taurolidine metabolizes to taurolidine hydrolysis products in vivo, this would support the conclusion that the hydrolysis products of taurolidine may have significant anti-neoplastic activity against neuroblastoma cells. In fact, it may be that the hydrolysis products of taurolidine have higher efficacy against neuroblastoma cells than taurolidine which has not been hydrolyzed.

SK-N-AS tumors = assay: SK-N-AS neuroblastoma tumors implanted subcutaneously in mice (FIGS. 3-8); format: in vivo, CB57 SCID mice
[2] = 5 grams intravenously by 20 minute infusion; cited from earlier work

Row | Compound | AUC(0-inf) [1] | sensitivity to decrease in viability compared to healthy fibroblasts (neuroblastoma cell lines; neuroblastoma cell lines vs healthy fibroblasts (BJ), in vitro) | IC50 (neuroblastoma cell lines; neuroblastoma cell lines, cell viability in vitro, FIG. 2) | concentration at which in vitro efficacy is seen (neuroblastoma cell lines; neuroblastoma cell lines, highest two concentrations tested, FIG. 2) | IC50 (healthy fibroblasts (BJ)) | sensitivity compared to healthy lymphocytes (leukemia cell lines) | efficacy in tumors in vivo (IMR5 tumors) | efficacy in tumors in vivo (SK-N-AS tumors; SK-N-AS tumors implanted subcutaneously in CB57 SCID mice) | overall survival (SK-N-AS tumors; mice implanted with SK-N-AS tumor, vs control) | tumor size (SK-N-AS tumors; mice with SK-N-AS cell line tumors, vs control) | concentration of taurolidine in healthy volunteers [2]
1 | NCCS(N)(=O)=O [Taurinamide, taurinamide] | 313 µg·h/mL | – | – | – | – | – | – | – | – | – | –
2 | O=S1(=O)CCN(CN2CCS(=O)(=O)NC2)CN1 [taurolidine] | – | more sensitive | 80 to 140 µM | above 40 microMolar | 200 µM | more sensitive | efficacy | measurable efficacy | not statistically different | Statistically significant decreases | NO measurable concentration

From patent US11541061B2, “Neuroblastoma treatment with taurolidine hydrolysis products” (CorMedix Inc., priority 2016, dated 2023)
